We go through 12 compounds from PubChem BioAssay (NCI).

Holding throughout (experiment): growth of human tumour cells (NCI), 48 h
The test system of experiment [1] is SW-620 colon.
Experiment [2] concerns COLO 205 colon.
For experiment [3], the system named is NCI-H460 lung.
Experiment [4] relates to HS 578T breast.
Experiment [5] deals with A549 NSCLC.
Experiment [6] relates to SF-268 CNS.
Experiment [7] has as its system HCT-116 colon.
In experiment [8] the test system is SK-MEL-2 melanoma.
Experiment [9] concerns HL-60(TB) leukemia.
For experiment [10], the system named is CCRF-CEM leukemia.

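Each compound was tested at five concentrations against cells in 96-well plates for 48 hours. The concentration for 50% growth inhibition is given as GI50. At the TGI there is no net growth.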

Take `Clc1ccc(C2CC(c3cccc(Nc4ccncc4)c3)=NN2c2ccc(Cl)cc2)cc1` (stereo not given): the figures for the GI50 in experiment [1], in experiment [2] and in experiment [3] were 1.8 µM, 2.09 µM and 1.86 µM, respectively. Besides, the figures for the TGI in experiment [1], in experiment [2] and in experiment [3] were 3.6 µM, 4.75 µM and 3.61 µM, respectively.

Turning to `COc1ccc(C(=O)O[C@H]2CC[C@@]3(C)[C@@H]4CC[C@H]5[C@]6(O)C[C@H](O)[C@@]7(O)[C@@H](CN8C[C@@H](C)CC[C@H]8[C@@]7(C)O)[C@]6(O)C[C@@]53OC24O)cc1OC`, the TGI in experiment [4], in experiment [5], in [6], in experiment [1], in experiment [2] and in [7] was greater than 100 µM each time. Moreover, the TGI in experiment [3] and in [8] was greater than 100 µM throughout.

In the case of `CC[C@@]1(OC(=O)CN(C)C)C(=O)OCc2c1cc1n(c2=O)Cc2cc3c(N)cccc3nc2-1`, the GI50 in experiment [4] is 2.03 µM; in [5], 0.0575 µM; in experiment [6], less than 0.01 µM; in experiment [1], 0.0181 µM; in experiment [2], 0.656 µM; in [9] it was 0.0226 µM. The GI50 is less than 0.01 µM in [10] and 1.24 µM in experiment [8]. In addition, the TGI is 58 µM in experiment [4]; 1.37 µM in experiment [5]; 0.11 µM in experiment [6]; 2.57 µM in [1]; 6.9 µM in experiment [2]; 10.7 µM in [9]. The TGI in [10] was 0.025 µM; in experiment [8], greater than 100 µM.

Take `Clc1cc2ccccc2c2ccccc12`: the TGI in experiment [4], in [5], in experiment [6], in experiment [1], in [2] and in experiment [9] was greater than 100 µM each time. In addition, the TGI in [7] is greater than 100 µM; in experiment [10], greater than 100 µM; in [3], greater than 100 µM; in experiment [8], 73.3 µM.

In the case of `NC1C=NNC1=O` (stereo not given), the TGI in experiment [5], in [6], in experiment [1], in [2], in experiment [9] and in experiment [10] was greater than 100 µM throughout. The compound also registered a TGI in experiment [8] greater than 100 µM.

Take `CCC1C(C#N)=C(O)NC(O)=C1C#N`: the TGI in experiment [5], in experiment [6], in experiment [1], in [2], in experiment [7] and in experiment [3] was greater than 100 µM throughout. The TGI in experiment [8] is greater than 100 µM.

Turning to `O=C(O)C(O)(c1ccc(-c2ccccc2)cc1)c1ccc(-c2ccccc2)cc1`, the TGI is greater than 100 µM in experiment [5]; 57.8 µM in [6]; greater than 100 µM in [1]; 49.7 µM in experiment [9]; 62.2 µM in experiment [7]; 45.9 µM in experiment [3]. The compound further had a TGI in experiment [8] of 30.6 µM.

For the compound `C[C@]12Cc3cnc(-c4ccccc4)nc3C[C@@H]1CC[C@@H]1[C@@H]2CC[C@@]2(C)[C@H]1CC[C@]2(C)O`, the TGI in [4] was 65.2 µM; in experiment [5] it was 57.6 µM; in [6], 33 µM; in experiment [1], greater than 100 µM; in [2], 43.2 µM; in experiment [9], greater than 100 µM. Moreover, the TGI in [7] is 48.8 µM; in experiment [10], 77.7 µM; in experiment [3], 39.4 µM; in experiment [8], 58.3 µM.

As for `O=NN1C(c2ccccc2)C2CCCC(C2=O)C1c1ccccc1` (stereo not given), the TGI in experiment [5] was greater than 100 µM; in experiment [6] it was greater than 100 µM; in experiment [1], greater than 100 µM; in experiment [2], 32 µM; in [9] it was 44.7 µM; in experiment [7], greater than 63.1 µM. The results for the TGI in experiment [10], in experiment [3] and in experiment [8] were greater than 83.6 µM, 48.3 µM and 40.5 µM, respectively.

With `COc1ccc(C(=O)NC2=C(Cl)C(=O)c3ccccc3C2=O)cc1`, the TGI in [4] is 33.5 µM; in [5], greater than 36.7 µM; in [6] it was 35.6 µM; in experiment [1] it was 3.45 µM; in experiment [2], 3.74 µM; in [9] it was greater than 100 µM. Moreover, the TGI in experiment [7] is 1.52 µM; in experiment [10], greater than 100 µM; in [3], 13.7 µM; in experiment [8] it was 3.13 µM.

On to `O=C1CCCC/C1=C1/SC(=Nc2ccccc2)C(=Nc2ccccc2)N1c1ccccc1`, for which the TGI in [4], in experiment [2], in experiment [9], in [7], in experiment [10] and in [3] was greater than 100 µM throughout. Moreover, in [8], the TGI is greater than 100 µM.

With `COc1ccc(NC(=S)NNC(=O)c2nsc3ccccc23)cc1`, the TGI in experiment [5] was greater than 100 µM; in experiment [6], greater than 100 µM; in experiment [1] it was greater than 100 µM; in experiment [2], greater than 100 µM; in experiment [9], 60.8 µM; in experiment [7] it was greater than 100 µM. In addition, the TGI in [3] was greater than 100 µM; in [8], 90.8 µM.
